# Like-named read-outs stand apart in the source and are kept apart here.
# How the values were obtained:
# [1] = tested on: hTERC rG4; test: Ligand-enhanced fluorescence assay; design: species or system human; details: 100 nM hTERC rG4
# Description: HTERC rG4 (100 nM) in Tris-HCl buffer (25 mM Tris-HCl, pH 7.5, 150 mM KCl, and 1 mM MgCl2) was heated at 95° C. for 3 minutes and cooled down at 25° C. for 10 minutes. 10 μL of the peptide and rG4 mixture were incubated for 30 minutes at room temperature. Fluorescence spectroscopy was performed using a microplate reader in 384 well plate. The samples were excited at 394 nm and the emission spectra were detected at 610 nm. The plot was carried out by software.
# [2] = tested on: hTERC rG4 WT construct in HeLa cells; test: Dual-luciferase reporter gene assay, hTERC rG4 WT construct; assay type: cell-based, human; details: peptide 0, 100, 200 nM, 48 hours
# Description: (§1) Wild-type or mutant hTERC rG4 construct was inserted into the HSV-TK promoter at the SacII restriction enzyme site of firefly/renilla dual luciferase reporter vector, psiCHECK-2. Then, wild-type or mutant reporter plasmid was transfected into Hela cells together with peptides (0, 100, 200 nM) using nucleofector. Each well of the 96-well black-wall optical plate was transfected with 30 ng plasmids. The luciferase reporter gene assays were performed after 48 hours of incubation using the dual-luciferase reporter assay kit. The microplate reader was used to measure luciferase activities with renilla luciferase serving as an internal control. The ratio of firefly to renilla was calculated to analyze the data. Three replicates were performed for each measurement, and the error bar was plotted based on the standard deviation. The P-value was calculated using two-tailed unpaired Student's t-tests to evaluate the significance of the samples.
# After confirming that the rG4-targeting peptides can interact with rG4 structures in live cells, their effect on modulating rG4-mediated gene expression was examined in the example. Dual luciferase reporter gene assay was conducted in HeLa cells, in which hTERC rG4 WT motif (SEQ ID NO: 12) or hTERC rG4 MUT motif (SEQ ID NO: 13) was inserted in the 5′ untranslated region (5′ UTR) of the renilla luciferase gene region separately, and the firefly luciferase gene was used as a normalized gene (FIG. 1).
# [3] = target: hTERC rG4; test: Microscale thermophoresis (MST) binding assay; design: species or system human; details: 50 nM FAM-labelled RNA, 150 mM KCl
# Description: (§2) The RNA was subjected to heat treatment at 75° C. for 5 minutes followed by cooling down to room temperature for 10 minutes for renaturation purposes. For binding affinity and selectivity test, reaction mixtures containing 50 nM FAM-labelled RNA, 150 mM KCl, 1 mM MgCl2, 25 mM Tris-HCl (pH 7.5) and varying concentrations of peptide were prepared and incubated at 37° C. for 30 minutes. The samples were then loaded into MST capillary tubes, and the measurements were taken at 25° C. using blue light mode and the binding affinity mode. The data obtained from these measurements were analyzed using MST nano temper analysis (nta) analysis software. The curve fitting and dissociation constant (Kd) determination were carried out by software using the one site-specific binding model.
# [4] = tested on: rG4s, dG4s (c-MYC, c-kit1, HRAS-1, hTelo) and non-G4 targets (scramble G-rich sequence, DNA hairpin, RNA hairpin); test: MST binding selectivity test with different rG4s, dG4s and non-G4 targets; details: data not shown
# Description: as §2
# [5] = tested on: 5' FAM, 3' TAMRA labelled hTERC rG4; test: FRET melting assay; assay type: binding, human; details: increasing peptide concentration, 0-2 μM; 0.2 μM rG4
# Description: FRET-melting assay was performed with 5′ FAM, 3′ TAMRA labelled hTERC rG4. The oligonucleotides were prepared at 0.2 μM, and the peptides were prepared at 0, 0.2, 0.4, 1 or 2 μM final concentration. The samples were excited at 492 nm and the emission spectra were detected at 516 nm in a buffer containing 10 mM lithium cacodylate and 1 mM KCl. The rG4 was heated at 95° C. for 5 minutes and cooled down in room temperature to refold for 10 minutes before adding the peptides. The signal was monitored by real-time PCR detection system with a procedure of 30 minutes at 25° C., then an increase of 0.5° C. every minute until 95° C. Each experimental condition was tested in three duplicates in a volume of 25 μL for each sample. The data were blanked, averaged and smoothed over 2° C. The plot was carried out by software.
# [6] = tested on: hTERC rG4 MUT construct in HeLa cells; test: Dual-luciferase reporter gene assay, hTERC rG4 MUT construct; assay type: cell-based, human; details: peptide 0, 100, 200 nM, 48 hours
# Description: as §1
# After confirming that the rG4-targeting peptides can interact with rG4 structures in live cells, their effect on modulating rG4-mediated gene expression was examined in the example. […]
# [7] = tested on: hTERC rG4 mutant (MUT); test: Filter binding assay, hTERC rG4 mutant; design: species or system human; details: data not shown
# Description: (§3) In the binding affinity and selectivity tests, reaction mixtures containing 5 nM biotin-labeled RNA, 25 mM Tris-HCl (pH 7.5), 150 mM KCl, 1 mM MgCl2 and varying concentrations of peptides were prepared in 50 μL and incubated at 37° C. for 30 minutes before loaded onto an apparatus containing a nitrocellulose membrane (top) and nylon membrane (bottom). The nylon membrane was rinsed with 0.5× Tris-borate-EDTA (TBE) buffer for 5 minutes, and the nitrocellulose membrane was rinsed with 0.5 M KOH for 15 minutes at 4° C. and then rinsed with 0.5×TBE buffer for one time prior to use. The membranes were washed with binding buffer for three times before and after applying the sample to the apparatus. The crosslinking step was carried out by exposing the membranes to UV irradiation at 254 nm, 120,000 microjoules/cm^2 for 5 minutes. The results were detected using a chemiluminescent nucleic acid detection module kit, and the scanned by an imaging system.
# [8] = tested on: hTERC rG4 MUT in HeLa cells; test: Cell imaging, co-transfection with hTERC rG4 MUT; assay type: cell-based, human; details: 5 hours post-transfection, data not shown
# Description: (§4) HeLa cells were seeded on a 3.5 cm confocal dish 1 day before transfection. FAM-labelled hTERC rG4 was heated to 75° C. for 5 minutes, annealed at 25° C., and then co-transfected with TAMRA-labelled peptide using LIPOFECTAMINE® 2000. Five hours post-transfection, the cells were stained with 50 nM deep red-fluorescent dye (labeling and tracking acidic organelles in live cells) for 30 minutes and 5 μg/mL Hoechst dye (staining nucleic acid) for 15 minutes. The images were monitored using a laser confocal scanning microscope. Fluorescence statistics of cells were analyzed using software.
# [9] = tested on: hTERC rG4 WT in HeLa cells; test: Cell imaging, co-transfection with hTERC rG4 WT; assay type: cell-based, human; details: 5 hours post-transfection, data not shown
# Description: as §4
# [10] = tested on: hTERC rG4 wild-type (WT); test: Filter binding assay, hTERC rG4 wild-type; design: species or system human; details: data not shown
# Description: as §3
substance,measurement,setting,value
RHAU53: positive control peptide reported to interact with rG4s; sequence SMHPGHLKGREIGMWYAKKQGQKNKEAERQERAVVHMDERREEQIVQLLNSVQA K (SEQ ID NO: 4) (SMHPGHLKGREIGMWYAKKQGQKNKEAERQERAVVHMDERREEQIVQLLNSVQAK),fluorescence signal / conformational change of G4 upon peptide binding,[1],exhibited a similar result
same,"normalized luciferase activity, WT construct",[2],effects of both tandem and cyclic pep11 were comparable to that of RHAU53
de novo G4-binding peptide with amino acid sequence TKRKHPHRRKYR (SEQ ID NO: 1) [pep11],Kd,"[3]; read-out: Kd, binding to hTERC rG4",1370 ± 220 nM
same,"binding selectivity among rG4s, dG4s and non-G4s",[4],only rG4s exhibited observable binding
same,melting temperature of hTERC rG4,[5],Higher melting temperatures
pep71: negative control peptide with amino acid sequence AHPLTKPPKYHH (SEQ ID NO: 5) [reference compound],"normalized luciferase activity, MUT construct",[6],did not impact
same,"normalized luciferase activity, WT construct",[2],did not impact
two pep11 domains linked by (GTGSGA)3: TKRKHPHRRKYRGTGSGAGTGSGAGTGSGATKRKHPHRRKYR (SEQ ID NO: 3) [tandem pep11],binding to hTERC rG4 MUT,[7],not MUT
same,foci in cells transfected with hTERC rG4 MUT,[8],few foci were observed
same,colocalization of TAMRA-labelled peptide with hTERC rG4 WT foci in live cells,[9],clear colocalization of TAMRA signals with the fluorescent foci
same,Kd,"[3]; read-out: Kd, binding affinity to hTERC rG4",449 ± 62 nM
same,"normalized luciferase activity, WT construct",[2],the inhibition extended with increasing concentration
same,binding to hTERC rG4 WT,[10],bound to hTERC rG4 WT
same,"binding selectivity among rG4s, dG4s and non-G4s",[4],bound to other rG4s but not to non-G4s and weakly to dG4s
same,melting temperature of hTERC rG4,[5],Higher melting temperatures

# Source: US20240255515A1, “G4-SPECIFIC PEPTIDES AND METHODS OF IDENTIFYING THE SAME” (CITY UNIVERSITY OF HONG KONG, priority 2023, published 2024)
